Experimental data as given in patent US20020082273A1, “Agents for use in the treatment of alzheimer's disease” (priority 1998, published 2002).
Several values for one entry are separate records, joined by “and”; a condition that tells them apart may be missing. Equal entries are not always repeated. Entries after “also recorded” stand apart in the source; their conditions may differ.

Legend:
TBARS assay of OH. = type: biochemical; details: scavenger 5 mM; Fe^3+ or Cu^2+
Description: All data points are means ±SD, n=3.
The Thiobarbituric Acid-Reactive Substance (TBARS) assay for incubation mixtures with Fe^3+ or Cu^2+ was performed in a 96-well microtiter format modified from established protocols (Gutteridge et al. Biochim. Biophys. Acta 759: 38-41 (1983)). Aβ peptide species (10 μM) or Vitamin C (100 μM), were incubated with Fe^3+ or Cu^2+ (1 μM) and deoxyribose (7.5 mM, Sigma) in PBS, pH 7.4. Following incubation (37° C., 1 hour), glacial (17 M) acetic acid and 2-thiobarburic acid (1%, w/v in 0.05 M NaOH, Sigma) were added and heated (100° C., 10 min). The final mixtures were placed on ice for 1-3 minutes before absorbances at 532 nm were measured. The net absorbance change for each sample were obtained by deducting the absorbance from a control sample consisting of identical chemical components except for the Vitamin C or Aβ peptides.

Aβ = assay: Effect of agents on Cu^2+-induced SDS-resistant Aβ polymerization; type: biochemical, human
Description: Cu^2+-induced SDS-resistant oligomerization of Aβ: Aβ (2.5 μM), 150 mM NaCl, 20 mM hepes (pH 6.6, 7.4, 9) with or without ZnCl2 or CuCl2. Following incubation (37° C.), aliquots of each reaction (2 ng peptide) were collected at 0 d, 1 d, 3 d and 5 d and western blotted using anti-Aβ monoclonal antibody 8E10 (FIG. 9). Migration of the molecular size markers are indicated (kDa). […] Cu^2+ (2-30 μM) induced SDS-resistant polymerization of peptide. […] It should be noted that other means of visualizing and/or determining the presence or absence of polymerization other than western blot analysis may be used. Such other means include but are not limited to density sedimentation by centrifugation of the samples.
It is possible that the decreased polymerization may be due to chelation of Cu^2+ by BC, however given the low binding affinity of BC for Cu^2+ compared with Aβ, it seems likely that the chelation of Cu^+ by BC prevents it from inducing SDS-resistant Ad polymerization. Therefore, Aβ may undergo a hydroxyl radical modification that promotes its assembly into SDS-resistant polymers.

[1] = tested on: Aβ deposits of AD-affected brain; assay: Extraction (solubilization) of Aβ from post-mortem AD brain tissue homogenates, western blot densitometry; type: biochemical, human
Description: Identical regions of frontal cortex (0.5 g) from post-mortem brains of individuals with AD, as well as non-AD conditions, were homogenized in TBS, […] ±metal chelators.
0.5 g of prefrontal cortex was dissected and homogenized in PBS ±chelator as indicated. The homogenate was then centrifuged (100,000 g) and the supernatant removed, and a sample taken for western blot assay using anti-Aβ specific antibodies after Tricine PAGE. Densitometry was performed against synthetic peptide standards.
Densitometry of Aβ western blots (FIGS. 19A-19C) was performed for a series of 6 AD brain samples homogenized in the presence of chelators as indicated.
Next the ability of clioquinol to extract Aβ deposits from human brain was examined. […] Fragments of prefrontal cortex from individual post-mortem samples with the histopathological diagnosis of AD were homogenized in PBS, pH 7.4, and then pelleted after centrifugation. The pellets were then washed with agitation twice for 30 minutes, 4° C., with PBS or PBS containing clioquinol (100% =0.8 μM clioquinol). The suspension was then pelleted (10,000 g for 30 minutes) and the supernatant removed (S1) for western blot analysis using Aβ-specific antibodies (illustrated). The pellet was treated a second time in this experiment with agitation and centrifugation, and the second supernatant (S2) analysed.
Soluble Aβ (ng/g tissue) was determined as described. Total Aβ was determined following formic acid extraction of otherwise untreated tissue.
(§1) Suitable quantities of gray matter from each subject were minced to serve as pools of homogenous tissue. […] To obtain the soluble fraction, the homogenates were centrifuged at 100,000× g for 30 min (Beckman J180, Beckman instruments, Fullerton, California) and the supernatant collected in 1 ml aliquots and stored on ice or immediately frozen at −70° C. In each experiment, all protein was precipitated from 1 ml of supernatant from each treatment group using 1:5 ice cold 10% trichloracetic acid and pelleted in a bench top microfuge (Heraeus, Osteroder, Germany) at 10,000× g. The remaining pellet was frozen at −70° C.
Precipitated protein was subjected to SDS polyacrylamide gel electrophoresis (SDS-PAGE) on Novex pre-cast 10-20% Tris-Tricine gels followed by Western transfer onto 0.2 μm nitrocellulose membrane (Biorad, Hercules, Calif.). […] Each gel included two or more lanes containing known quantities of synthetic Aβ which served as internal reference standards. Blot images were captured by a Relisys scanner with transparency adapter (Teco Information Systems, Taiwan, ROC) and densitometry conducted using the NIH Image 1.6 program (National Institutes for Health, USA. Modified for PC by Scion Corporation, Frederick, Md.), calibrated using a step diffusion chart. For quantitation of Aβ in brain extracts, the internal reference standards of synthetic Aβ were utilized to produce standard curves from which values were interpolated.

[2] = tested on: Aβ deposits of age-matched control brain; assay: Extraction of Aβ from age-matched non-AD control brain tissue; type: biochemical, human
Description: as §1
Precipitated protein was subjected to SDS polyacrylamide gel electrophoresis (SDS-PAGE) on Novex pre-cast 10-20% Tris-Tricine gels followed by Western transfer onto 0.2 μm nitrocellulose membrane (Biorad, Hercules, Calif.). Aβ was detected using the WO2, G210 or G211 monoclonal antibodies (Ida, N., et al., J. Biol. Chem., 271:22908 (1996)) in combination with HRP-conjugated rabbit anti-mouse IgG (Dako, Denmark), and visualized using chemiluminescence (ECL, Amersham Life Science, Little Chalfont, Buckinghamshire, UK). Each gel included two or more lanes containing known quantities of synthetic Aβ which served as internal reference standards. Blot images were captured by a Relisys scanner with transparency adapter (Teco Information Systems, Taiwan, ROC) and densitometry conducted using the NIH Image 1.6 program (National Institutes for Health, USA. Modified for PC by Scion Corporation, Frederick, Md.), calibrated using a step diffusion chart. For quantitation of Aβ in brain extracts, the internal reference standards of synthetic Aβ were utilized to produce standard curves from which values were interpolated.

[3] = Residual metals in post-centrifugation pellets of brain homogenates (ICP-AES); type: biochemical, human; details: Table 6
Aβ1-42 = Aβ1-42 (Homo sapiens, UniProt P05067); assay: Effect of metal chelators on H2O2 production from Aβ1-42; type: biochemical
Chain of Aβ1-42 (P05067 672-713 limits assumed): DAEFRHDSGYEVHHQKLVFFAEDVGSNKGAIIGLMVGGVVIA

[4] = Table 5, NIST database, cited from earlier work
[5] = Table 5; NIST database; cited from earlier work
[6] = Table 5; NIST database; cited from earlier work; remark: listed apart in the source

Compound: C[S+](C)[O-] [DMSO, dimethyl sulfoxide]
- effect of OH. scavengers on OH. generation by Aβ1-42 (TBARS assay of OH.): neither were able to quench

Compound: OC[C@@H](O)[C@@H](O)[C@H](O)[C@H](O)CO [mannitol]
- effect of OH. scavengers on OH. generation by Aβ1-42 (TBARS assay of OH.): neither were able to quench
- effect on Cu^2+-induced SDS-resistant Aβ polymerization (Aβ): abolishes the polymerization

Compound: bathocuproinedisulfonic acid [BC]
- % of total Aβ extracted [1]: 3.1% and 7.2% and 6%
- % of total Aβ extracted, + PBS [1]: 2.36% and 5.4% and 3.7%
- Extractable Aβ (% of total), X (mean) [1]: (5.4) %
- Extractable Aβ, X (mean) [1]: 4.10 µg/g
- X C/PBS (mean chelator / PBS) [1]: 3.90
- concentration response of Aβ solubilization [1]: typical concentration-dependent response with no decline in effectiveness
- mean increase of Aβ solubilization over PBS alone [1]: around 4 fold
- Extractable Aβ ([2]; AC subject 1, chelator 2 mM): 0.03 µg/g
- Extractable Aβ (% of total) ([2]; AC subject 1, chelator 2 mM): (5) %
- Extractable Aβ ([2]; AC subject 2, chelator 2 mM): 0.24 µg/g
- Extractable Aβ (% of total) ([2]; AC subject 2, chelator 2 mM): (5.7) %
- Extractable Aβ ([2]; AC subject 3, chelator 2 mM): 0.29 µg/g
- Extractable Aβ (% of total) ([2]; AC subject 3, chelator 2 mM): (11.0) %
- Extractable Aβ ([2]; AC subject 4, chelator 2 mM): 0.08 µg/g
- Extractable Aβ (% of total) ([2]; AC subject 4, chelator 2 mM): (2.6) %
- Extractable Aβ ([2]; AC subject 5, chelator 2 mM): 0.98 µg/g
- Extractable Aβ (% of total) ([2]; AC subject 5, chelator 2 mM): (27.2) %
- Extractable Aβ (% of total), X (mean) ([2]; AC subjects 1-5, chelator 2 mM): (10.3) %
- Extractable Aβ, X (mean) ([2]; AC subjects 1-5, chelator 2 mM): 0.32 µg/g
- X C/PBS (mean chelator / PBS) ([2]; age-matched control tissue, chelator 2 mM): 1.28
- effect on Aβ solubilization compared with AD tissue ([2]; non-demented, aged-matched controls): much reduced
- Residual Al in extracted pellet ([3]; chelator 0.001 mM): 88 mg/kg
- Residual Ca in extracted pellet ([3]; chelator 0.001 mM): 1306 mg/kg
- Residual Cu in extracted pellet ([3]; chelator 0.001 mM): 13 mg/kg
- Residual Fe in extracted pellet ([3]; chelator 0.001 mM): 275 mg/kg
- Residual Mg in extracted pellet ([3]; chelator 0.001 mM): 225 mg/kg
- Residual Zn in extracted pellet ([3]; chelator 0.001 mM): 47 mg/kg
- Residual Al in extracted pellet ([3]; chelator 0.004 mM): 33 mg/kg
- Residual Ca in extracted pellet ([3]; chelator 0.004 mM): 489 mg/kg
- Residual Cu in extracted pellet ([3]; chelator 0.004 mM): 12 mg/kg
- Residual Fe in extracted pellet ([3]; chelator 0.004 mM): 231 mg/kg
- Residual Mg in extracted pellet ([3]; chelator 0.004 mM): 234 mg/kg
- Residual Zn in extracted pellet ([3]; chelator 0.004 mM): 47 mg/kg
- Residual Al in extracted pellet ([3]; chelator 0.01 mM): 73 mg/kg
- Residual Ca in extracted pellet ([3]; chelator 0.01 mM): 762 mg/kg
- Residual Cu in extracted pellet ([3]; chelator 0.01 mM): 13 mg/kg
- Residual Fe in extracted pellet ([3]; chelator 0.01 mM): 256 mg/kg
- Residual Mg in extracted pellet ([3]; chelator 0.01 mM): 223 mg/kg
- Residual Zn in extracted pellet ([3]; chelator 0.01 mM): 49 mg/kg
- Residual Al in extracted pellet ([3]; chelator 0.04 mM): 38 mg/kg
- Residual Ca in extracted pellet ([3]; chelator 0.04 mM): 753 mg/kg
- Residual Cu in extracted pellet ([3]; chelator 0.04 mM): 15 mg/kg
- Residual Fe in extracted pellet ([3]; chelator 0.04 mM): 248 mg/kg
- Residual Mg in extracted pellet ([3]; chelator 0.04 mM): 226 mg/kg
- Residual Zn in extracted pellet ([3]; chelator 0.04 mM): 56 mg/kg
- Residual Al in extracted pellet ([3]; chelator 2.0 mM): 42 mg/kg
- Residual Ca in extracted pellet ([3]; chelator 2.0 mM): 1602 mg/kg
- Residual Cu in extracted pellet ([3]; chelator 2.0 mM): 14 mg/kg
- Residual Fe in extracted pellet ([3]; chelator 2.0 mM): 271 mg/kg
- Residual Mg in extracted pellet ([3]; chelator 2.0 mM): 254 mg/kg
- Residual Zn in extracted pellet ([3]; chelator 2.0 mM): 49 mg/kg
- Residual Al in extracted pellet ([3]; chelator 5.0 mM): 38 mg/kg
- Residual Ca in extracted pellet ([3]; chelator 5.0 mM): 912 mg/kg
- Residual Cu in extracted pellet ([3]; chelator 5.0 mM): 15 mg/kg
- Residual Fe in extracted pellet ([3]; chelator 5.0 mM): 249 mg/kg
- Residual Mg in extracted pellet ([3]; chelator 5.0 mM): 238 mg/kg
- Residual Zn in extracted pellet ([3]; chelator 5.0 mM): 53 mg/kg
- effect on H2O2 formation by Aβ1-42 (Aβ1-42): substantially inhibited; also recorded: inhibited H2O2 formation
- effect on Cu^2+-induced SDS-resistant Aβ polymerization (Aβ): marked decrease in polymerization
- Stability constant logK10, Cu^2+ ([4]; Cu^2+): 6.1
- Stability constant logK10, Cu^+ ([4]; Cu^+): 19.1
- Stability constant logK10, Zn [5]: 4.1
- Stability constant logK10, Co [6]: 4.2
